Here are results for 4 molecules from BindingDB's records for doi:10.1016/j.bmc.2021.116498 (Kyushu University, 2021).

In general, EC50 refers to the midpoint of the concentration-response curve.

Numbered stars: 1 amine (or outer) side, 2 acyl side, 3 side chain; on linkers, the order of the positions; unused ones are H or OH. Square brackets hold non-standard residues; d marks the D form. Peptide text beside a SMILES is read from it. X2 = O=C([C@H](Cc1c(F)cc(F)c(F)c1F)N[*:1])[*:2]; X3 = O=C([C@H](Cc1cc(F)c(F)c(F)c1F)N[*:1])[*:2]; Cha = N[C@@H](CC1CCCCC1)C(=O)O

This assay in a line: Activation of PAR-1 in human platelet-rich plasma assessed as induction of platelet aggregation by turbidimetric method.
“H-SFLLRNP-NH2 [1-{(S)-2-[(S)-2-((S)-2-{(S)-2-[(S)-2-((S)-2-Amino-3-hydroxy-propionylamino)-3-phenyl-propionylamino]-4-methyl-pentanoylamino}-4-methyl-pentanoylamino)-5-guanidino-pentanoylamino]-3-carbamoyl-propionyl}-pyrrolidine-2-carboxylic acid amide]”: the EC50 amounted to 3 µM.
For the molecule `CC(C)C[C@H](NC(=O)[C@H](CC(C)C)NC(=O)[C@H](CC1CCCCC1)NC(=O)[C@@H](N)CO)C(=O)N[C@@H](CCCNC(=N)N)C(=O)N[C@@H](CC(N)=O)C(=O)N1CCC[C@H]1C(N)=O` (H-S[Cha]LLRNP-NH2), the EC50 stood at 99 µM.
Then `CC(C)C[C@H](NC(=O)[C@H](CC(C)C)NC(=O)[C@H](Cc1cc(F)c(F)c(F)c1F)NC(=O)[C@@H](N)CO)C(=O)N[C@@H](CCCNC(=N)N)C(=O)N[C@@H](CC(N)=O)C(=O)N1CCC[C@H]1C(N)=O` (H-S[X3]LLRNP-NH2), with 50 µM.
Take `CC(C)C[C@H](NC(=O)[C@H](CC(C)C)NC(=O)[C@H](Cc1c(F)cc(F)c(F)c1F)NC(=O)[C@@H](N)CO)C(=O)N[C@@H](CCCNC(=N)N)C(=O)N[C@@H](CC(N)=O)C(=O)N1CCC[C@H]1C(N)=O` (H-S[X2]LLRNP-NH2): the half-maximal effective concentration (EC50) turned out to be 8.9 µM.
